# Data reported in patent US20250122183A1 (Pfizer Inc., priority 2023, published 2025).
# How the values were obtained:
# Type in all cases: biochemical
# KAT5 Full length enzyme = KAT5 Full length enzyme (Homo sapiens (Human), UniProt Q92993); experiment: KAT5 assay (SAMDI-MS acetylation of H4 1-21 peptide); conditions: Morrison equation fit; replicate number in parentheses; read-out: KAT5 Ki (nM) (replicate number)
# [1] = target: KAT7+JADE1+EAF6+ING5 4 protein complex (Homo sapiens (Human), UniProt O95251); experiment: KAT7 JADE1 assay (SAMDI-MS acetylation of H3 1-21 peptide); conditions: Morrison equation fit; replicate number in parentheses; read-out: KAT7 JADE1 Ki (nM) (replicate number)
# KAT6A Full length enzyme = KAT6A Full length enzyme (Homo sapiens (Human), UniProt Q92794); experiment: KAT6A assay (SAMDI-MS acetylation of H3 1-21 peptide); conditions: Morrison equation fit; replicate number in parentheses; read-out: KAT6A Ki (nM) (replicate number)
# KAT8 Full length enzyme = KAT8 Full length enzyme (Homo sapiens (Human), UniProt Q9H7Z6); experiment: KAT8 assay (SAMDI-MS acetylation of H3 1-21 peptide); conditions: Morrison equation fit; replicate number in parentheses; read-out: KAT8 Ki (nM) (replicate number)
# KAT8 Full length enzyme, sequence (Q9H7Z6 whole entry): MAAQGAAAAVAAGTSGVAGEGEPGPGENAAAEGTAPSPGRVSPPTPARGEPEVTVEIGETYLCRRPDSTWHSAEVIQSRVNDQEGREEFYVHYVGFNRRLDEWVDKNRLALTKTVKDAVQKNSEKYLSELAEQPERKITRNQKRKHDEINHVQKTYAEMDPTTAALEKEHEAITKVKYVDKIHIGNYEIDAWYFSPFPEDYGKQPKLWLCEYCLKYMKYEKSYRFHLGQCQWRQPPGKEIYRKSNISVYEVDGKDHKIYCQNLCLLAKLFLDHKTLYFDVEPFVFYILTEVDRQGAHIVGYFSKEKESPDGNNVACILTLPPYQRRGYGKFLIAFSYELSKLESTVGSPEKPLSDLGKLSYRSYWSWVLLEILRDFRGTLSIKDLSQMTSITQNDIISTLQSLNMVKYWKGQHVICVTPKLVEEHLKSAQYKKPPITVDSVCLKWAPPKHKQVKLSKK
# KAT5 Full length enzyme, sequence (Q92993 whole entry): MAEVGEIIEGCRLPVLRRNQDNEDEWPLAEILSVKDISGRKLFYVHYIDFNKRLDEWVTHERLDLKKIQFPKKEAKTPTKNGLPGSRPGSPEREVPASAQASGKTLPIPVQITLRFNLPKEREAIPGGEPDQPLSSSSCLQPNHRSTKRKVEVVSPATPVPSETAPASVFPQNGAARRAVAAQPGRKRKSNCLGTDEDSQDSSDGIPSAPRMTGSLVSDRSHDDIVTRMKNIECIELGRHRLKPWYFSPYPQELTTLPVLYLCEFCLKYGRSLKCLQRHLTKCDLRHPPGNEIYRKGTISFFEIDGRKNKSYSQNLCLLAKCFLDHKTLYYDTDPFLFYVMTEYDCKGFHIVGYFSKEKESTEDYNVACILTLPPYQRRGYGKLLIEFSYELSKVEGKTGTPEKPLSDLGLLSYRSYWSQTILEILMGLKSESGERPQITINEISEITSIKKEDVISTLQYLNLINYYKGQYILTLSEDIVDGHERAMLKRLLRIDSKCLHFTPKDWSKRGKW
# KAT6A Full length enzyme, sequence (Q92794 other isoform, or with tags, fused parts or gaps): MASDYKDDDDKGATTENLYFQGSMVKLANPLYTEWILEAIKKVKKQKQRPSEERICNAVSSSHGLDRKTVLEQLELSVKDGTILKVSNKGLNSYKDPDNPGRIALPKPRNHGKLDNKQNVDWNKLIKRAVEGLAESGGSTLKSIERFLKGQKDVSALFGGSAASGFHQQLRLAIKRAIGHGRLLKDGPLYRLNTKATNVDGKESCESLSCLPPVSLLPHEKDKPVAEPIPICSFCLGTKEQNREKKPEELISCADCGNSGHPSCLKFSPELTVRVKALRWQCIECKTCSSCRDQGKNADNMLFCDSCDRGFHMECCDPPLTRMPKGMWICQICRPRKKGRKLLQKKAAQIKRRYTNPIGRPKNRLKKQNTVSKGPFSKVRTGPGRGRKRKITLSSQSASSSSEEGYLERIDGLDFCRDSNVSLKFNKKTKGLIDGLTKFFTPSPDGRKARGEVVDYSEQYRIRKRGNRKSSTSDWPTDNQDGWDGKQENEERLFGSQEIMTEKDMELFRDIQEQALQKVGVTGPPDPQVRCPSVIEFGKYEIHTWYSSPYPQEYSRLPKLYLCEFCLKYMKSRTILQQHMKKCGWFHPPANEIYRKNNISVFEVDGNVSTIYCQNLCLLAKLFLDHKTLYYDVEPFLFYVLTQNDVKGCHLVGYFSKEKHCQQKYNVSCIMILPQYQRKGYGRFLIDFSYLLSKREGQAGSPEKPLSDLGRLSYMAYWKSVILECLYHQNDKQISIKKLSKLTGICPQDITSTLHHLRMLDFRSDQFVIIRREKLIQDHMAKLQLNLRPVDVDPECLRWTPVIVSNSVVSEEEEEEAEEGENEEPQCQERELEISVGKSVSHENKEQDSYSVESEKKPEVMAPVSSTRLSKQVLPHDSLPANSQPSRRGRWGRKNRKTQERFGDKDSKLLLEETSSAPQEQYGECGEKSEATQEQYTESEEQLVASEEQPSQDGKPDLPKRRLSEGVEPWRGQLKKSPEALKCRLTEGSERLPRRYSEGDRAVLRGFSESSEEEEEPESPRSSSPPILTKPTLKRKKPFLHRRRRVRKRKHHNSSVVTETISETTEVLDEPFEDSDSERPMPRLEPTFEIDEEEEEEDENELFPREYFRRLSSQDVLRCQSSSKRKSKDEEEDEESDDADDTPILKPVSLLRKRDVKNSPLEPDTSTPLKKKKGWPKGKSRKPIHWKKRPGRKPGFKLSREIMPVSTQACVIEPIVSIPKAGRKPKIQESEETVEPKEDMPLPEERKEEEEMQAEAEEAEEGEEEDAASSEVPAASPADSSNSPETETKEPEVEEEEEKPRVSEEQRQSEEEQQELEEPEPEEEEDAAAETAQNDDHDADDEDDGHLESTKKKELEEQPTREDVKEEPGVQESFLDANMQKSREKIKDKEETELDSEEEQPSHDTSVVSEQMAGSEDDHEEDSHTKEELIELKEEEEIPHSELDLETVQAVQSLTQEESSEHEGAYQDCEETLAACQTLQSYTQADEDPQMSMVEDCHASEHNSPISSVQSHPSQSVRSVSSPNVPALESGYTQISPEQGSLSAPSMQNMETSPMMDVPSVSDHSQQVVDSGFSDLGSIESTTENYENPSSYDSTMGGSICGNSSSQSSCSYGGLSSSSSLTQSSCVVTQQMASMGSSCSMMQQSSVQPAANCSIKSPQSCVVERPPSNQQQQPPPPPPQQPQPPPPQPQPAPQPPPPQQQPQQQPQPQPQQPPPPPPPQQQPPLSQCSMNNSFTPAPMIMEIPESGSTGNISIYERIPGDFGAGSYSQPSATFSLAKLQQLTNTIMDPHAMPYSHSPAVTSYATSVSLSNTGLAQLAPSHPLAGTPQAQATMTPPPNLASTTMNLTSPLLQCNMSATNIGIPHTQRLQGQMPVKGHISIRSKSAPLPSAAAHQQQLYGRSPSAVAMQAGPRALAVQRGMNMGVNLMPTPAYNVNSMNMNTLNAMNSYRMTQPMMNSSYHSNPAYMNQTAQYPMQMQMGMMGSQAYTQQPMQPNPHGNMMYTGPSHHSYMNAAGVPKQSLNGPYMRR
SMILES,Ki (KAT5 Full length enzyme),Ki [1],Ki (KAT6A Full length enzyme),Ki (KAT8 Full length enzyme)
"COc1cccc(OC2CC2)c1S(=O)(=O)Nc1noc2cc(Nc3cc(C4CC4)n[nH]3)c(F)c(OC)c12 [Example 80, 2-(cyclopropyloxy)-N-{6-[(5-cyclopropyl-1H-pyrazol-3-yl)amino]-5-fluoro-4-methoxy-1,2-benzoxazol-3-yl}-6-methoxybenzene-1-sulfonamide]",1450 nM,32.3 nM,3.8 nM,7760 nM
"COc1cc2c(NS(=O)(=O)c3c(OC)cc(-c4ccccc4)cc3OC)noc2cc1Nc1cc(C2CC2)n[nH]1 [Example 119, N-{6-[(3-cyclopropyl-1H-pyrazol-5-yl)amino]-5-methoxy-1,2-benzoxazol-3-yl}-3,5-dimethoxy[1,1′-biphenyl]-4-sulfonamide]",19.4 nM,3.6 nM,0.2 nM,156 nM
"COc1cccc(F)c1S(=O)(=O)Nc1noc2cc(Nc3cc(C4CC4)n[nH]3)c(F)c(OC)c12 [Example 81, N-{6-[(3-cyclopropyl-1H-pyrazol-5-yl)amino]-5-fluoro-4-methoxy-1,2-benzoxazol-3-yl}-2-fluoro-6-methoxybenzene-1-sulfonamide]",336 nM,31.6 nM,3.5 nM,> 13000 nM
"COc1cc2c(NS(=O)(=O)c3c(OC)cccc3OC)noc2cc1Nc1ncccn1 [Example 102, 2,6-dimethoxy-N-{5-methoxy-6-[(pyrimidin-2-yl)amino]-1,2-benzoxazol-3-yl}benzene-1-sulfonamide]",5970 nM,1440 nM,1.9 nM,> 19500 nM
"CCc1ccc(S(=O)(=O)Nc2noc3cc(Nc4cc(CC)[nH]n4)c(OC)cc23)cc1 [Example 136, 4-ethyl-N-{6-[(5-ethyl-1 H-pyrazol-3-yl)amino]-5-methoxy-1,2-benzoxazol-3-yl}benzene-1-sulfonamide]",2940 nM,92.7 nM,16.3 nM,> 13000 nM
"COc1cc2c(NS(=O)(=O)c3c(OC)cc(CN4CC(F)C4)cc3OC)noc2cc1Nc1cc(C2CC2)n[nH]1 [Example 202, N-{6-[(3-cyclopropyl-1H-pyrazol-5-yl)amino]-5-methoxy-1,2-benzoxazol-3-yl}-4-[(3-fluoroazetidin-1-yl)methyl]-2,6-dimethoxybenzene-1-sulfonamide]",25.4 nM,5.2 nM,0.7 nM,844 nM
"COc1cc2c(NS(=O)(=O)c3c(OC)cccc3OC)noc2cc1Nc1cc([C@@H]2CC2(F)F)[nH]n1 (single isomer, unassigned) [Example 69, N-(6-{[5-(2,2-difluorocyclopropyl)-1H-pyrazol-3-yl]amino}-5-methoxy-1,2-benzoxazol-3-yl)-2,6-dimethoxybenzene-1-sulfonamide]",> 50000 nM,> 29000 nM,> 3290 nM,> 13000 nM
"CCc1cc(Nc2cc3onc(NS(=O)(=O)c4cccc(Oc5ccccc5C)c4)c3cc2OC)n[nH]1 [Example 125, N-{6-[(5-ethyl-1 H-pyrazol-3-yl)amino]-5-methoxy-1,2-benzoxazol-3-yl}-3-(2-methylphenoxy)benzene-1-sulfonamide]",5090 nM,180 nM,48.6 nM,> 13000 nM
"CCc1cc(Nc2cc3onc(NS(=O)(=O)c4cc(Cl)ccc4Cl)c3cc2OC)n[nH]1 [Example 134, 2,5-dichloro-N-{6-[(5-ethyl-1 H-pyrazol-3-yl)amino]-5-methoxy-1,2-benzoxazol-3-yl}benzene-1-sulfonamide]",4550 nM,185 nM,34.3 nM,9800 nM
"CCn1nc(Nc2cc3onc(NS(=O)(=O)c4c(OC)cccc4OC)c3cc2OC)cc1C1CC1 [Example 113, N-{6-[(5-cyclopropyl-1-ethyl-1H-pyrazol-3-yl)amino]-5-methoxy-1,2-benzoxazol-3-yl}-2,6-dimethoxybenzene-1-sulfonamide]",50000 nM,9090 nM,348 nM,> 13000 nM
"COc1cc2c(NS(=O)(=O)c3c(OC)cc(C4COCCN4C)cc3OC)noc2cc1Nc1cc(C2CC2)[nH]n1 (single isomer, unassigned) [Example 180, N-{6-[(5-cyclopropyl-1 H-pyrazol-3-yl)amino]-5-methoxy-1,2-benzoxazol-3-yl}-2,6-dimethoxy-4-(4-methylmorpholin-3-yl)benzene-1-sulfonamide]",94.8 nM,6.5 nM,1.7 nM,3370 nM
"COc1cc2c(NS(=O)(=O)c3c(OC)cccc3OC)noc2cc1Nc1cc2n(n1)CC[C@@H]2C (single isomer, unassigned) [Example 89, 2,6-dimethoxy-N-(5-methoxy-6-{[4-methyl-5,6-dihydro-4H-pyrrolo[1,2-b]pyrazol-2-yl]amino}-1,2-benzoxazol-3-yl)benzene-1-sulfonamide]",168 nM,39.3 nM,3 nM,> 12200 nM
"COc1cc2c(NS(=O)(=O)c3c(OC)cccc3OC)noc2cc1Nc1cc([C@H]2CC2(F)F)[nH]n1 (single isomer, unassigned) [Example 68, N-(6-{[5-(2,2-difluorocyclopropyl)-1H-pyrazol-3-yl]amino}-5-methoxy-1,2-benzoxazol-3-yl)-2,6-dimethoxybenzene-1-sulfonamide]",39.3 nM,16.8 nM,1.2 nM,4130 nM
"COc1cc2c(NS(=O)(=O)c3c(OC)cccc3OC)noc2cc1Nc1cc([C@H](C)O)n[nH]1 (single isomer, unassigned) [Example 86, N-(6-{[3-(1-hydroxyethyl)-1H-pyrazol-5-yl]amino}-5-methoxy-1,2-benzoxazol-3-yl)-2,6-dimethoxybenzene-1-sulfonamide]",1280 nM,552 nM,8.9 nM,> 13000 nM
"CCc1cc(Nc2cc3onc(NS(=O)(=O)c4c(OC)cc(-c5ccn(C)n5)cc4OC)c3cc2OC)[nH]n1 [Example 230, N-{6-[(3-ethyl-1H-pyrazol-5-yl)amino]-5-methoxy-1,2-benzoxazol-3-yl}-2,6-dimethoxy-4-(1-methyl-1 H-pyrazol-3-yl)benzene-1-sulfonamide]",158 nM,2.3 nM,1 nM,1960 nM
"CCn1nc(Nc2cc3onc(NS(=O)(=O)c4c(OC)cccc4OC)c3cc2OC)cc1C [Example 74, N-{6-[(1-ethyl-5-methyl-1H-pyrazol-3-yl)amino]-5-methoxy-1,2-benzoxazol-3-yl}-2,6-dimethoxybenzene-1-sulfonamide]",2160 nM,483 nM,5.2 nM,> 13000 nM
"COc1cc2c(NS(=O)(=O)c3c(OC)cccc3OC)noc2cc1Nc1cc(C2CCCC2)n[nH]1 [Example 85, N-{6-[(3-cyclopentyl-1H-pyrazol-5-yl)amino]-5-methoxy-1,2-benzoxazol-3-yl}-2,6-dimethoxybenzene-1-sulfonamide]",225 nM,33.4 nM,4.7 nM,3380 nM
"COc1cccc(OC)c1S(=O)(=O)Nc1noc2cc(Nc3ncccn3)cc(OC)c12 [Example 20, 2,6-dimethoxy-N-{4-methoxy-6-[(pyrimidin-2-yl)amino]-1,2-benzoxazol-3-yl}benzene-1-sulfonamide]",9380 nM,1540 nM,5.3 nM,14600 nM
"COc1cc2c(NS(=O)(=O)c3c(OC)cc(C4CN(C)CCO4)cc3OC)noc2cc1Nc1cc(C2CC2)n[nH]1 (single isomer, unassigned) [Example 152, N-{6-[(3-cyclopropyl-1 H-pyrazol-5-yl)amino]-5-methoxy-1,2-benzoxazol-3-yl}-2,6-dimethoxy-4-(4-methylmorpholin-2-yl)benzene-1-sulfonamide]",105 nM,4.1 nM,0.7 nM,1160 nM
"COc1cc2c(NS(=O)(=O)c3c(OC)cc(C4CN(C)CCO4)cc3OC)noc2cc1Nc1cc(C2CC2)n[nH]1 (single isomer, unassigned) [Example 153, N-{6-[(3-cyclopropyl-1 H-pyrazol-5-yl)amino]-5-methoxy-1,2-benzoxazol-3-yl}-2,6-dimethoxy-4-(4-methylmorpholin-2-yl)benzene-1-sulfonamide]",17.4 nM,5.7 nM,0.8 nM,571 nM
"COc1cccc(OC)c1S(=O)(=O)Nc1noc2cc(Nc3ccon3)cc(OC)c12 [Example 16, 2,6-dimethoxy-N-{4-methoxy-6-[(1,2-oxazol-3-yl)amino]-1,2-benzoxazol-3-yl}benzene-1-sulfonamide]",1650 nM,702 nM,0.2 nM,2250 nM
"COc1cc2c(NS(=O)(=O)c3c(OC)cccc3OC)noc2cc1Nc1cc(C(C)(C)C)n[nH]1 [Example 116, N-{6-[(3-tert-butyl-1H-pyrazol-5-yl)amino]-5-methoxy-1,2-benzoxazol-3-yl}-2,6-dimethoxybenzene-1-sulfonamide]",546 nM,98 nM,11.8 nM,7900 nM
"COc1cc2c(NS(=O)(=O)c3c(OC)cccc3OC)noc2cc1Nc1nc(C)cc(C)n1 [Example 108, N-{6-[(4,6-dimethylpyrimidin-2-yl)amino]-5-methoxy-1,2-benzoxazol-3-yl}-2,6-dimethoxybenzene-1-sulfonamide]",45000 nM,3420 nM,202 nM,> 13000 nM
"COc1cc2c(NS(=O)(=O)c3c(OC)cccc3OC)noc2cc1Nc1cc([C@@H](C)O)n[nH]1 (single isomer, unassigned) [Example 87, N-(6-{[3-(1-hydroxyethyl)-1H-pyrazol-5-yl]amino}-5-methoxy-1,2-benzoxazol-3-yl)-2,6-dimethoxybenzene-1-sulfonamide]",1800 nM,1230 nM,23.5 nM,> 13000 nM
